Laboratory results taken from article PMC4654502, “Early Gelatinase Activity Is Not a Determinant of Long-Term Recovery after Traumatic Brain Injury in the Immature Mouse” (PLoS ONE, 2015).
Several values for one entry are separate records, joined by “and”; a condition that tells them apart may be missing. Equal values may be shown once.

Columns and labels:
MMP-9 [1] = assay: Inhibition constant for MMP-9; type: biochemical; settings: more potent than the parent compound
MMP-2 [2] = assay: Inhibition constant for MMP-2; type: biochemical; settings: more potent than the parent compound
[3] = Pharmacokinetics and brain distribution after multiple-dose s.c. administration; type: in vivo, p21 naïve male C57Bl/6J mice
Experimental: Dosing route and concentration were similar to what we proposed to do for treatment for the current study. Terminal blood samples were collected in heparinized tubes through the posterior vena cava and centrifuged to obtain plasma (n = 3 per time point). Whole brain samples were harvested after transcardial perfusion with saline, immediately flash frozen in liquid nitrogen, and stored at -80°C until analysis.

MMP-9 [4] = settings: cited from earlier work
MMP-9 or MMP-2 = settings: compared with SB-3CT; cited from earlier work
[5] = system: controlled cortical impact TBI at p21; assay: Resident-intruder test at adulthood after TBI at p21; type: in vivo, male C57Bl/6J mice; settings: 25 mg/kg s.c. at 2, 4, 24, 48 h post-injury; tested at adulthood
Experimental: The controlled cortical impact model of TBI was used as previously described. TBI to the p21 mouse approximates a toddler-aged child, based upon the structural, biochemical and behavioral characteristics of this age. Pups were anaesthetized with 1.25% 2,2,2-tribromoethanol (Avertin; Sigma-Aldrich, St. Louis, MO) in isotonic saline (i.p. bolus at 0.02 mL/g body weight). After craniotomy, mice were subjected to a controlled cortical impact at 4.5 m/s velocity and 1.73 mm depth of penetration, for a sustained depression of 150 ms, using a 3.0 mm convex impactor tip. Mice were maintained on a water-circulating heating pad throughout surgery and recovery. Following impact, the scalp was closed with sutures and each animal administered 0.5 ml of isotonic saline subcutaneously (s.c.) to prevent post-operative dehydration. Sham-operated mice underwent identical surgical procedures, including craniotomy, without receiving the cortical impact. All mice were closely monitored for 1–2 hours post-surgery until return of the righting reflex and full mobilization. […]
To assess social investigative behaviors, a novel stimulus mouse (matched for strain, age and sex) was presented into the established home cage of the test mouse, and investigative behaviors were quantified from video recordings as previously described.

[6] = system: controlled cortical impact TBI at p21; assay: Stereological volumes and hippocampal cell counts at adulthood after TBI at p21; type: in vivo, male C57Bl/6J mice; settings: ~2 months post-injury
Experimental: The controlled cortical impact model of TBI was used as previously described. TBI to the p21 mouse approximates a toddler-aged child, based upon the structural, biochemical and behavioral characteristics of this age. Pups were anaesthetized with 1.25% 2,2,2-tribromoethanol (Avertin; Sigma-Aldrich, St. Louis, MO) in isotonic saline (i.p. bolus at 0.02 mL/g body weight). After craniotomy, mice were subjected to a controlled cortical impact at 4.5 m/s velocity and 1.73 mm depth of penetration, for a sustained depression of 150 ms, using a 3.0 mm convex impactor tip. Mice were maintained on a water-circulating heating pad throughout surgery and recovery. Following impact, the scalp was closed with sutures and each animal administered 0.5 ml of isotonic saline subcutaneously (s.c.) to prevent post-operative dehydration. Sham-operated mice underwent identical surgical procedures, including craniotomy, without receiving the cortical impact. All mice were closely monitored for 1–2 hours post-surgery until return of the righting reflex and full mobilization. Mice were then returned to group-housing, and weighed post-surgery at days 1, 3, and weekly thereafter till the end of the study.
(§1) The treatment regime was based upon several considerations. […] Thirdly, we limited treatment to a period of 48 h post-injury in order to minimize potential off-target effects on ongoing brain development processes at this time, given the known roles that these gelatinases play in postnatal synaptic maturation. For acute studies (gelatin zymography and histology) animals were euthanized at 4 hours and for in situ zymography, they were euthanized 1 hour after the last injection. For long-term studies (behavioral and cognitive assessments and histology) animals were euthanized at ~2 months post-injury. Euthanasia was by overdose with 2.5% Avertin i.p. followed by decapitation or cardiac transperfusion as described below.
Upon completion of behavioral and cognitive assessments at ~ 2 months post-injury, anesthetized mice were perfused transcardially with ice-cold saline followed by 4% paraformaldehyde in 0.1M PBS. Collected brains were post-fixed overnight in 4% PFA and then transferred into a 30% sucrose solution for 72 h before being embedded in Neg50^TM (Richard-Allan Scientific, Thermo Fisher Scientific, Fremont, CA). Serial coronal sections spanning the entire cortex were cut at 20 μm or 40 μm (for time points of 48 h or 2 months post-injury, respectively).
An estimation of intact cortical and hippocampal volumes was performed on 40 μm coronal sections stained with cresyl violet, collected at ~ 2 months post-injury. The unbiased Cavalieri method was performed with StereoInvestigator software (MicroBrightField v10.21.1, Williston, VT, USA), using a Nikon E600W microscope configured with a motorized stage, MAC 5000 controller and Retiga 2000R color digital camera (QImaging, Surrey, BC, Canada). Spanning Bregma 1.5 to -3.8 mm, 12–16 sections containing cortex and 7–10 sections containing hippocampus were assessed per brain, using a sampling interval of 8 and a grid size of either 200 μm or 75 μm for cortex and hippocampus, respectively. Measurements were confined to the dorsal hemispheres as previously described using a 2x objective for the cortex and 4x for the hippocampus. The Gundersen mean coefficient of error (m = 1) was maintained ≤0.03 for cortical volume estimates and ≤0.08 for the hippocampus and dentate gyrus (DG). Group means are expressed as estimated volume (mm³). Certain sections were excluded from stereological analyses due to poor tissue integrity, folding or incomplete staining. In these cases, the section was deemed to be ‘missing’ and estimation for this section was calculated from the StereoInvestigator program based upon the adjacent sections. This was permitted for a maximum of 2 non-adjacent sections per brain. […]

gelatinase activity = assay: In situ zymography (DQ-gelatin) of brain sections after TBI at p21; type: in vivo, mouse; settings: 25 mg/kg s.c. at 2, 4, 24 and 48 h post-injury; brains 1 h after last injection
Experimental: as §1
One hour after the last injection, brains were collected and embedded in optimal cutting temperature medium (OCT, Tissue-Tek, CA). The tissue blocks were cryosectioned at 10μm thickness and subjected to in-situ zymography, as described by Oh et al.. Briefly, the sectioned tissues were stained with DQ-gelatin (Molecular Probes, Inc., OR, USA) to detect gelatinase activity, followed by incubation with DAPI solution to detect nuclei. […]

MMP-2 [7] = settings: cited from earlier work
[8] = 25 mg/kg s.c. at 0, 2 and 24 h, p21 mice
[9] = 0.5 h after final dose, 25 mg/kg s.c. at 0, 2 and 24 h, p21 mice
[10] = 1 h after final dose, 25 mg/kg s.c. at 0, 2 and 24 h, p21 mice
[11] = 2 h after final dose, 25 mg/kg s.c. at 0, 2 and 24 h, p21 mice

O=S(=O)(CC1CS1)c1ccc(Oc2ccc(O)cc2)cc1 (centres unmarked) [p-OH SB-3CT]
potency at inhibiting MMP-9 relative to parent compound SB-3CT (MMP-9 [1]): 2.5 fold | potency at inhibiting MMP-2 relative to parent compound SB-3CT (MMP-2 [2]): 5 fold | AUC 0-last, brain [3, 8]: 189 pmol·min/mg | AUC 0-last, plasma [3, 8]: 273 µM·min | AUC 0-∞, brain [3, 8]: 191 pmol·min/mg | AUC 0-∞, plasma [3, 8]: 276 µM·min | Brain AUC /Plasma AUC [3, 8]: 0.693 | Brain concentration [3, 9]: 4.67 ± 1.60 pmol/mg tissue | Plasma concentration [3, 9]: 6490 ± 4490 nM | peak brain level expressed as concentration ([3]; 30 min after final dose, assuming a density of 1 g/mL): 4.67 µM | Brain concentration [3, 10]: 0.905 ± 1.09 pmol/mg tissue | Plasma concentration [3, 10]: 1660 ± 1820 nM | Brain concentration [3, 11]: 0.0772 ± 0.0211 pmol/mg tissue | Plasma concentration [3, 11]: 122 ± 76.2 nM | Brain concentration ([3]; 4 h after final dose, 25 mg/kg s.c. at 0, 2 and 24 h, p21 mice, 25 mg/kg): 0.0209 ± 0.0058 pmol/mg tissue and 0.0209 ± 0.00578 pmol/mg tissue | time to peak concentration in brain ([3]; s.c., after the final dose): 30 min | time to peak concentration in plasma ([3]; s.c., after the final dose): 30 min | Ki (MMP-9 [4]): 160 ± 80 nM | residence time (how long the drug is bound to the target MMPs) (MMP-9 or MMP-2): considerably longer than that of SB-3CT | injury-induced reduction in social investigation (resident-intruder) [5]: independent of treatment with p-OH SB-3CT | contralateral cortical volume ([6]; TBI groups or sham groups compared): did not alter contralateral cortical volumes | ipsilateral hippocampal volume, TBI mice vs vehicle-treated ([6]; TBI, p = 0.0835): reduced hippocampal volumes, that did not reach statistical significance | contralateral dentate gyrus volume ([6]; sham and TBI mice): did not affect contralateral DG volume | contralateral hippocampus volume ([6]; sham or TBI brains): did not affect the contralateral hippocampus volume | ipsilateral dentate gyrus volume ([6]; sham or TBI groups): no effect of drug treatment | ipsilateral cortical volume ([6]; sham or injured animals): did not influence ipsilateral cortical volumes | ipsilateral hippocampal volume, sham mice vs vehicle-treated sham ([6]; sham, p = 0.0669): tended to exhibit larger hippocampal volumes | gelatinase activity post-injury (in situ zymography) compared to vehicle control (gelatinase activity): attenuated gelatinase activity | Ki (MMP-2 [7]): 6 ± 3 nM
